Here are results for one compound from patent US5652250A, “N-substituted β-aryl- and β-heteroaryl-α-cyanoacrylamide derivatives and process for their preparation” (Pharmacia S.p.A., priority 1994, dated 1997).

For one test, the system named is K562 cells. As to the kind of experiment: K562 Cell Growth Inhibition Assay. It is filed as cell-based. The following applies: K562 human myelogenous leukemia cells, 72 h. The procedure:
K562 cells, a human myelogenous leukemia cell line, were seeded into a 24 wells tissue culture plate (Falcon 3047) (10000/well) in the presence of increasing concentrations of the compounds. After 72 h, cells were harvested and were counted using a cell counter (Coulter Counter--ZM). The percent of inhibition was evaluated in respect to the untreated control cells.

For test [1], the target named is p45 v-abl tyrosine kinase. As to the kind of experiment: p45 v-abl Kinase Assay ((Val^5)-Angiotensin II phosphorylation). Type of test: biochemical, Abelson murine leukemia virus. The note with it: (Val^5)-Angiotensin II 2 mM, ATP 50 μM, pH 8.0, 30° C., read-out: Inhibition of p45 v-abl kinase IC50. The procedure:
The enzyme used in our test was the p45 v-abl tyrosine kinase which represents the catalytic domain of the Abelson tyrosine kinase (isolated from the Abelson murine leukemia virus). The p45 v-abl kinase was produced and isolated as described by Wang et al. in J. Biol. Chem. 260, 64 (1985) and by Ferguson et al. in J. Biol. Chem. 260, 3652 (1985) and in Biochem. J. 257, 321 (1989).
(Val^5)-Angiotensin II phosphorylation was performed by incubation with 40 ng of purified abl-kinase and (γ^32 P)-ATP, in 50 μl of buffer containing Tris-HCl 25 mM, pH 8.0, MgCl2 10 mM and dithiothreitol 0.1 mM (kinase buffer). The reaction mixture was incubated for the indicated time at 30° C. and the reaction stopped by adding 50 μl of 5% trichloroacetic acid. After a brief incubation on ice, tubes were centrifuged. The supernatants were spotted on phosphocellulose paper squares (Whatman P-81) and washed extensively in acetic acid. The radioactivity bound to dried phosphocellulose squares was measured in a liquid scintillation counter. IC50 values were calculated from triplicate determinations of each experimental point. Each inhibitor was tested at concentrations ranging from […] in the presence of fixed concentrations of peptide (2 mM) and ATP (50 μM).

As a reminder, the IC50 is the concentration needed to halve the response being measured. On to `N#CC(=Cc1ccc(O)c2ncccc12)C(=O)Nc1ccccc1` [N-phenyl β-(8-hydroxy-5-quinolyl)-α-cyanoacrylamide], for which the half-inhibitory concentration (IC50) came to 0.66 µM with K562 cells and 3.4 µM in test [1].
